Assay results taken from patent US20210145768A1, “MODULATING IMMUNE RESPONSE VIA TARGETING OF OLFACTORY RECEPTOR ACTIVITY” (La Jolla Institute for Allergy and Immunology, priority 2018, published 2021).
Entries after “also recorded” stand apart in the source; their conditions may differ.

Columns and labels:
[1] = system: Olfr2; assay: Olfr2, Rtp1 and Rtp2 mRNA expression (qPCR) in explanted aortas; format: cell-based, mouse
Source text: Next, Olfr2 expression in aortas harvested from western-type diet (WD)-fed male mice (n=5) was investigated^18. Briefly, whole aortas were harvested from Apoe^−/− mice fed western-like diet (WD) for 2 weeks and treated as described above. Relative expression of Olfr2 quantified by real time PCR analysis of Olfr2 expression normalized to expression of Gapdh and untreated control.
In addition, Rtp1 and Rtp2 expression in aortas harvested from Apoe−/− mice was investigated. Briefly, explanted aortas of Apoe−/− mice treated for 12h with Oct (10 μM) and/or lipopolysaccharide (LPS, 500 ng/mL). Rtp1 and Rtp2 expression was assessed by qPCR as described above. N=3 independent experiments (relative expression calculated by 2^−ΔΔCt method). Data are presented as means±SEM. *p<0.05, **p<0.01, ***p<0.005, ****p<0.001. p calculated by One-Way ANOVA test, Tukey's multiple comparisons test.
(§1) BMDMs and hMDMs were incubated in culture media for 12 h at 37° C. and 5% CO2 with Oct, (10 μM), LPS (500 ng/mL) alone or combined with Oct (LPS+Oct) and DMSO (0.1%) as a control and lysed with Qiazol (500 μL; Qiagen) Similarly, whole aortas incubated as previously described were transferred into Qiazol (500 μl; Qiagen) and digested with gentleMACS™ Dissociator (Miltenyi).
(§2) Total RNA was quantified using a nanodrop spectrophotometer (Peqlab) and 500 ng were reverse transcribed into cDNA using Omniscript reverse transcriptase (Qiagen). Real time PCR reactions were performed according to the RT^2 SYBR green gene expression assay protocol (Qiagen). RT2 SYBR Green qPCR master mix and premade RT^2 qPCR Primer Assays for mouse Olfr2, Rtp1, Rtp2, Ccl2, Ccl4, Tnf, Nos2 and Gapdh were used. Similarly, real time PCR analysis of hMDMs samples was performed following the RT^2 SYBR green gene expression assay protocol (Qiagen), applying RT^2 SYBR Green qPCR master mix and premade RT^2 qPCR Primer Assays for human OR6A2, TNF, IL-6, NOS2 and GAPDH. The results were calculated applying the 2^−ΔΔCT method^32 using Gapdh/GAPDH as housekeeping gene.

[2] = molecular target: T1, Olfr2 (Mus musculus, UniProt Q9QWU6); assay: Inflammatory gene expression (real time PCR) in explanted whole aortas treated with octanal, citral, LPS; format: cell-based; design: Olfr2 expression was confirmed at the protein level on F4/80^+ vascular macrophages; from tissue; host or cells: explanted whole aortas, digested aortic cell suspensions (F4/80+ vascular macrophages) and blood monocytes of Apoe-/- C57BL/6J mice; living Apoe-/- mice for the in vivo study; details: for octanal-induced increase in CCL2, CCL4, TNF and iNOS (Nos2) expression: citral 100 μM with octanal 10 μM, in presence and absence of LPS; for mRNA expression of Ccl2, Ccl4, Tnf and Nos2 (iNOS): explanted whole aortas of Apoe−/− mice on WD 2 weeks, octanal 10 μM alone, normalized to Gapdh and untreated control
T1 sequence (Q9QWU6 1-327): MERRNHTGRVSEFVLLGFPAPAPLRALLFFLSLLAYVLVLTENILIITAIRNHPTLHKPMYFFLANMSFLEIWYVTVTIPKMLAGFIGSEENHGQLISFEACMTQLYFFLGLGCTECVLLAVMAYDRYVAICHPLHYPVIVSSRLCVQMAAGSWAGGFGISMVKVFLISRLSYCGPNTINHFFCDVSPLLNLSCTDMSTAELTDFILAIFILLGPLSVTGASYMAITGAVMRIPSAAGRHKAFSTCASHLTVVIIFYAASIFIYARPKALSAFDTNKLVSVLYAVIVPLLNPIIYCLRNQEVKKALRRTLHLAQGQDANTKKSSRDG
Experimental: Gene expression analysis was performed by harvesting whole aortas from apoE^−/− mice kept on western diet (WD) for 2 weeks and treating for 12h with DMSO (Ctrl), citral (Cit, 100 μM), octanal (Oct, 10 μM in DMSO) or lipopolysaccharide (lps, 0.5 μg/mL in DMSO) alone or in combination. After the incubation, aortas were transferred in Trizol reagent (1 ml) and digested with gentleMACS™ Dissociator (Millteny). Total RNA was then purified with RNAse Micro kit (Qiagen) and reverse transcribed using the Omniscript reverse transcriptase kit (Qiagen). Real-time PCR reaction was performed following the RT^2 Sybr green gene expression assay protocol (Qiagen). RT2 SYBR Green qPCR mastermix mix and premade RT^2 qPCR Primer Assay for mouse GAPDH, CCL2, CCL4, TNF, and iNOS were used. Data were normalized to the expression levels of the housekeeping gene GAPDH.
To test physiologic effects of Olfr2 activation in situ, explanted whole aortas of mice (n=5 per group) were treated with octanal with or without LPS. Briefly, whole aortas were left untreated or incubated with the Olfr2 agonist octanal (Oct, 10 μM), LPS, (500 ng/mL), or with both for 12 h. Quantitative Real time PCR reaction was performed to detect Ccl2, Ccl4, Tnf, and Nos2 gene expression. Relative expression was normalized to Gapdh expression and the untreated control. […] TNF secretion by vascular macrophages (F4/80+) was confirmed by intracellular staining using flow cytometry (FIG. 7F).
Apoe^−/− mice were fed WD for 2 weeks before sacrifice for aorta explant culture. Whole aortas were incubated in culture medium with DMSO (0.1% as a vehicle), octanal (Oct, 10 μM), LPS (500 ng/mL) alone or octanal and LPS combined (LPS+Oct) for 12 h at 37° C. and 5% CO2. Subsequently, aortas were collected and further processed as below discussed for RNA extraction, and flow cytometry analysis. Culture supernatants were collected, aliquoted, and frozen at −80° C. until further analysis.
as §1
RNA extraction was performed using a Qiazol/RNAeasy micro kit hybrid protocol (Qiagen).
as §2

[3] = molecular target: T1, Olfr2; assay: as above; format: cell-based; design: Olfr2 expression was confirmed at the protein level on F4/80^+ vascular macrophages; from tissue; host or cells: explanted whole aortas, digested aortic cell suspensions (F4/80+ vascular macrophages) and blood monocytes of Apoe-/- C57BL/6J mice; living Apoe-/- mice for the in vivo study; details: dose response 3, 10, 30 μM octanal, 12 h

Structure (SMILES) | Olfr2 mRNA expression ([1]; citral, data not shown) | octanal-induced increase in CCL2, CCL4, TNF and iNOS (Nos2) expression ([2]; explanted aortas, 12 h) | octanal-induced increase in CCL2, CCL4, TNF and iNOS (Nos2) expression ([2]; explanted aortas, 12 h, listed as Cit) | aortic Olfr2, Rtp1 and Rtp2 mRNA ([1]; LPS 500 ng/mL + octanal 10 μM ex vivo, 12 h) | Olfr2 expression (qRT-PCR) ([1]; LPS + octanal) | Olfr2 expression (qRT-PCR) ([1]; octanal alone) | LPS-induced expression of inflammatory molecules (Ccl2, Ccl4, Tnf, Nos2) ([2]; explanted aortas, octanal 10 μM + LPS 500 ng/mL, 12 h) | mRNA expression of Ccl2, Ccl4, Tnf and Nos2 (iNOS) ([2]; 12 h) | mRNA expression of Ccl2, Ccl4, Tnf and Nos2 (iNOS) ([2]; 12 h, listed as Oct) | LPS induction of CCL2 (MCP-1) and CCL4 ([2]; qRT-PCR, octanal + LPS) | iNOS expression induced by LPS ([2]; qRT-PCR, octanal + LPS) | TNF expression ([2]; qRT-PCR, octanal + LPS, Olfr2 ligation required to reveal LPS-induced increase) | CCL2 and CCL4 expression ([2]; qRT-PCR, octanal alone (without LPS)) | octanal concentration at which enhancement of LPS-induced expression peaks [3] [µM]
CC(C)=CCCC(C)=CC=O [citral] | did not affect | completely blocked; also recorded: effective at curbing inflammatory mediator expression | reduced | – | – | – | – | – | – | – | – | – | – | –
CCCCCCCC=O [octanal] | – | – | – | significantly enhanced | further increased | no effect | exacerbate the inflammatory response; also recorded: significantly enhances; also recorded: enhanced the LPS-induced expression | induces expression of inflammatory mediators; also recorded: induced mRNA expression | induces pro-inflammatory gene expression | significantly enhanced | greatly enhanced | greatest effect | measurable increase | 3 to 10
